Test results: patent publication US7266458B2, “BioMAP analysis” (Bioseek, Inc., priority 2000, dated 2007)

Legend:
[1] = system: human umbilical vein endothelial cells (HUVEC); assay: Optimized inflammatory assay combination (IL-1+TNF-α+IFN-γ) with added agents, cell-based ELISA biomap; details: for biomap in the optimized assay combination: 10 μM NHGA, 200 YM PDTC, 9 μM PD098059, 125-500 μM ibuprofen, TNF-α+IFN-γ+IL-1, 24 hours; for reference biomaps compared by pattern similarity and cluster analysis: hierarchical clustering, FIG. 4C
Description: After 24 hours, cultures are washed and evaluated for the cell surface expression of ICAM-1 (1), VCAM-1 (2), E-selectin (3), IL-8 (4), CD31 (5), HLA-DR (6) and MIG (7) by cell-based ELISA performed as described above.
Confluent cultures of HUVEC cells are treated with TNF-α (5 ng/ml)+IFN-γ (100 ng/ml)+IL-1 (1 ng/ml) in the presence or absence of agents or buffers at the concentrations indicated in Table 1. Compounds are obtained from commercial sources and prepared in a suitable buffer (water, base media, DMSO, methanol or ethanol). After 24 hours, cultures are washed and evaluated for the cell surface expression of ICAM-1 (1), VCAM-1 (2), E-selectin (3), IL-8 (4), CD31 (5), HLA-DR (6) and MIG (7) by cell-based ELISA performed as described above. A color-coded representation of the resulting biomaps developed from the data is shown. […] Control assay combinations for each agent include an appropriate concentration of the diluent buffer.
Readout patterns are analyzed by hierarchical clustering techniques, and are visualized as a tree diagram in which a) each terminal branch point represents the readout pattern from one assay combination in one experiment; b) the length of the vertical distance from the upper horizontal line (no change and control patterns) to the termini are related to the extent of difference in the readout pattern from the control environment pattern; and c) the distance along, the branches from one terminal pattern value to another reflects the extent of difference between them. Similar patterns are thus clustered together.

[2] = system: human umbilical vein endothelial cells (HUVEC); assay: Multiplex assay combinations for distinguishing mechanism of action (single cytokines, activating anti-p55); format: cell-based; details: 20 μM AA861, 10 μM NHGA
Description: Confluent cultures of HUVEC cells are treated with TNF-α (5 ng/ml), IFN-γ (100 ng/ml), IL-1 (20 ng/ml), the combination of TNF-α+IFN-γ+IL-1, or media (no cytokine) in the presence or absence of neutralizing anti-TNF-α, 20 μM AA861 or 10 μM NHGA. After 24 hours, cultures are washed and evaluated for the cell surface expression of ICAM-1 (1), VCAM-1 (2), E-selectin (3), IL-8 (4), and MIG (5) by cell-based ELISA performed as described in Example 1. A graphical representation of the resulting biomaps derived from the data is shown in FIG. 5, coded as described above.
Confirmation is performed by evaluating the test agent in assay combinations that include both physiologic and alternative pathway activators. Confluent cultures of HUVEC cells are treated with TNF-α (5 ng/ml), IL-1 (20 ng/ml), an activating antibody against the TNF-α receptor p55, or media. After 24 hours, cultures are washed and evaluated for the cell surface expression of ICAM-1 (1), VCAM-1 (2), E-selectin (3), CD31 (4), and MIG (5) by cell-based ELISA performed as described above. A graphical representation of the resulting biomap, prepared from the data is shown in FIG. 6, coded as described above.

[3] = system: human umbilical vein endothelial cells (HUVEC); assay: Morpholino antisense in HUVEC, cell surface expression by flow cytometry; format: cell-based
Text: Morpholino phosphorodiamidate (MF) antisense oligonucleotides are used. Other chemical classes of antisense oligonucleotides that can be substituted for morpholinos include but are not limited to phosphorotioate oligonucleotides, N3′-P5′ phosphoramidate oligonucleotides (NP), locked nucleic acid (LNA), 2′-O-methoxyethyl nucleic acid (MOE), 2′-fluoro-arabinonucleic acid (FANA), peptide nucleic acids (PNA) (reviewed in Toulme, Nature Biotech. 19:17, 2001); siRNA (Elbashir et al. (2000) Nature 411:494-498); ribozymes (Kawasaki et al. (2002) Nat. Biotech 20:376-380); standard antisense (Veres et al. (1998) J. Virol. 72:1894-1901). In the present example, antisense oligonucleotides for TNF-R1 (p55) (5′-[…]-3′)(SEQ ID NO:1), and the beta-globin control oligo (5′-[…]-3′)(SEQ ID NO:2) (Gene Tools Inc.) are used. The transfection mixture is prepared by mixing […] of 200 mM EPEI (Ethoxylated PolyEthylenlmine), vortexed, incubated at room temperature for 20 minutes, and then mixed with 3.5 ml of serum-free media to give a final 0.6 μM morpholino concentration.
HUVEC cells are plated the day before in 24-well plates at 4-6×10e4 cells/well. Cells are washed once with serum-free media and incubated with 0.4 ml of the morpholino transfection mixture at 37° C. for 3 hours. Morpholino is removed, regular media ([…] Growth Media with 2% fetal calf serum, Clonetics) is added and cells allowed to recover overnight. The efficiency of loading of cells with morphino is monitored in cells incubated with a fluorescent morpholino, and is typically essentially 100 percent. HUVEC cells are then treated with either TNF-α (0.5 ng/ml), or IL-1 (1 ng/ml), or media only. After 4 hours, cells are harvested and evaluated for the cell surface expression of ICAM-1 (1), VCAM-1 (2), E-selectin (3), and CD31 (4) by flow cytometry. […] The TNF-R1 antisense specifically blocks induction of ICAM-1 and VCAM-1 by TNF-α, while it has no effect on induction of the same markers by the independent cell surface receptor for IL-1.

[4] = system: human umbilical vein endothelial cells (HUVEC); format: cell-based; design: key: Active BioMap profiles (indicated as “yes”) were significantly different from the profile obtained with the control vector; BioMAP profiles that were not different from control vector are indicated as “—”; details: NFkB Pathway genes; TNF-alpha, IL-1, IFN-gamma individually or in combination; vs control vector, p < 0.05, n = 3
Description: High-titer retrovirus preparations are generated by transient transfection of vector construct into a retroviral packaging cell line (AmphoPack-293;Clontech). […] Expression of BioMAP markers (ICAM-1, VCAM, etc.) is measured by a cell-based ELISA technique (Melrose, 1998, supra) that has been optimized such that changes in expression levels of >20% can be routinely detected as statistically significant effects (p<0.05). […] Cells were stained with the NGFr specific monoclonal antibody (Chemicon).
In the lower two panels IFN-gamma was added to all samples. Average values (ELISA OD) from triplicate samples are shown, error bars indicate standard deviation. Control is HUVEC transduced with the “empty” vector, which only encodes NGFr marker. Data are from a representative experiment. Results were reproduced in at least two experiments with HUVEC cells from different donors.
Gene over-expression vectors were generated for many members of the NFκB and Jak/STAT pathways, and measured BioMAP profiles in transduced HUVEC cells by a cell-based ELISA technique (Melrose, 1998, supra), in the presence of TNF-alpha, IL-1, IFN-gamma, individually or in combination. […] Average values (ELISA OD) from triplicate samples are shown. Control (_-_) is HUVEC transduced with the “empty” retroviral vector, which only encodes NGFr marker. Data shown are from a representative experiment.

[5] = system: human umbilical vein endothelial cells (HUVEC); assay: Apoptosis assay panel (ceramide, TNF-α) with LDH release and cell-based ELISA; details: factor added to endothelial cell cultures, vs basal conditions
Description: A panel of assay combinations that reproduces aspects of the response of the endothelial cells to inflammatory processes and stimuli enhancing apoptosis is used.
Retroviral vectors derived from the MSCV-based pMSCVneo vector (Clontech) are used to express genes in the cultured endothelial cells. […] Test genes are inserted downstream of the MSCV LTR, the marker gene is the enhanced green fluorescent protein (GFP) and the IRES is 600 bp fragment from EMCV virus (Jang, J. Virol. 63:1651, 1989). […] Retroviral vector plasmid DNA is transfected into AmphoPack-293 cells (Clontech) by modified calcium phosphate method according to manufacturer's protocol (MBS transfection kit, Stratagene). Cell supernatants are harvested 48 hours post-transfection, filtered to remove cell debris (0.45 pm) and transferred onto exponentially growing HUVEC cells. DEAE dextran (conc lopg/ml) is added to facilitate vector transduction. After a 5-8 hour incubation period viral supernatants are removed and cells cultured for an additional 40 hours. Gene transfer efficiency is determined by FACS, and is typically ≧80 percent. […] After 24 hours, transduced cells are evaluated for the surface expression ICAM-1 (1), VCAM-1 (2), and MIG (3) by cell-based ELISA for biomap analysis. For the expanded biomap, cell supernatants at 24 hours are collected and analyzed for the presence of LDH (4).

[6] = system: human umbilical vein endothelial cells (HUVEC); assay: HUVEC treated with proinflammatory cytokines, readout parameters by cell-based ELISA; details: HUVEC cultured with cytokine(s) 24 hours, vs basal medium
Description: Primary human umbilical vein endothelial cells (HUVEC) are used. […] 2×10^4 cells/ml are cultured to confluence in EGM-2 (Clonetics).
After 24 hours, cultures are washed and evaluated for the presence of the parameters ICAM-1 (1), VCAM-1 (2), E-selectin (3), IL-8 (4), CD31 (5), HLA-DR (6) and MIG (7) by cell-based ELISA as described (Melrose, J. Immunol. 161:2457, 1998). For this, plates are blocked with 1% Blotto for 1 hr, and treated with primary antibodies (obtained from Pharmingen and Becton Dickinson) at 1 ng/ml for 2 hr. After washing, secondary peroxidase-conjugated anti-mouse IgG antibody (Promega) at 1:2500 is applied for 45 min. After washing, TMB substrate (Kierkegaard & Perry) is added and color developed. Development is stopped by addition of H2SO4 and the absorbance at 450 nm (subtracting the background absorbance at 600 nm) is read with a Molecular Dynamics plate reader. The relative expression levels of each parameter are indicated by the OD at 450 nm shown along the y-axis. The mean +/−SD from triplicate samples is shown.
After 24 hours, cultures are washed and evaluated for the presence of the parameters ICAM-1 (1), VCAM-1 (2), E-selectin (3), IL-8 (4), CD31 (5), HLA-DR (6) and MIG (7) by cell-based ELISA performed as described above, and are reported as the OD at 450 nm. The mean +/−SD from triplicate samples are shown. * indicates p<0.05 comparing results obtained with the two separate conditions.

[7] = 0.6 μM morpholino, IL-1 1 ng/ml, 4 hours
[8] = 0.6 μM morpholino, TNF-α 0.5 ng/ml, 4 hours

**Q.** How did the “biomap in the optimized assay combination” value [1] turn out when `CC(Cc1ccc(O)c(O)c1)C(C)Cc1ccc(O)c(O)c1` (stereo not drawn) [NHGA, nordihydroguaiaretic acid] was run?
**A.** altered biomaps

**Q.** And the “reference biomaps compared by pattern similarity and cluster analysis” value [1]?
**A.** have similar reference biomaps and cluster together

**Q.** And the “cytokine signaling pathways targeted in the panel” value [2]?
**A.** target multiple cytokine signaling pathways

**Q.** Which results are given for `COc1cccc(-c2cc(=O)c3ccccc3o2)c1N` [PD098059]?
**A.** biomap in the optimized assay combination [1]: altered biomaps; reference biomaps compared by pattern similarity and cluster analysis [1]: remain in the same cluster

**Q.** `S=C(S)N1CCCC1` [PDTC, pyrrolidine dithiocarbamate] was tested. Which “biomap in the optimized assay combination” value [1] did it give?
**A.** altered biomaps

**Q.** What about the “reference biomaps compared by pattern similarity and cluster analysis” value [1] of the same molecule?
**A.** have similar reference biomaps and cluster together

**Q.** For `O=C(NC1=CC(=O)c2ccccc2C1=O)c1ccccc1` [PPM-18], which “reference biomaps compared by pattern similarity and cluster analysis” value [1] is on record?
**A.** have similar reference biomaps and cluster together

**Q.** For `O=c1cc(-c2ccc(O)cc2)oc2cc(O)cc(O)c12` [apigenin], which “reference biomaps compared by pattern similarity and cluster analysis” value [1] is on record?
**A.** have similar reference biomaps and cluster together

**Q.** How did the “biomap in the optimized assay combination” value [1] turn out when `CC(C)Cc1ccc(C(C)C(=O)O)cc1` (stereo not drawn) [ibuprofen] was run?
**A.** visually different representations of biomaps

**Q.** How did the “reference biomaps compared by pattern similarity and cluster analysis” value [1] turn out when `C[C@]12C=CC(=O)C=C1CC[C@@H]1[C@@H]2[C@@H](O)C[C@@]2(C)[C@H]1CC[C@]2(O)C(=O)CO` [prednisolone] was run?
**A.** related reference biomaps that are distinct from those of NFκB pathway inhibitors

**Q.** Which “biomap vs control oligo biomap upon treatment with TNF-α” value [3] does the source give for “TNF-R1 antisense: morpholino antisense oligonucleotide for TNF-R1 (p55), 5′-AGGTCAGGCACGGTGGAGAGGC-3′ (SEQ ID NO:1) (all phosphorodiamidate morpholino (PMO))” here?
**A.** altered biomap

**Q.** And the “induction of ICAM-1 by IL-1” value [3, 7]?
**A.** no effect

**Q.** What about the “induction of VCAM-1 by IL-1” value [3, 7] of the same molecule?
**A.** no effect

**Q.** What about the “induction of ICAM-1 by TNF-α” value [3, 8] of the same molecule?
**A.** blocks

**Q.** And the “induction of VCAM-1 by TNF-α” value [3, 8]?
**A.** blocks

**Q.** For TNFA, which BioMAP readout [4] is on record?
**A.** yes

**Q.** Which “cell damage as release of cytoplasmic lactate dehydrogenase into the supernatant” value [5] does the source give for ceramide here?
**A.** enhanced

B1: IFN-γ: cytokine added to HUVEC (protein)
chain: QDPYVKEAENLKKYFNAGHSDVADNGTLFLGILKNWKEESDRKIMQSQIVSFYFKLFKNFKDDQSIQKSVETIKEDMNVKFFNSNKKKRDDFEKLTNYSVTDLNVQRKAIHELIQVMAELSPAAKTGKRKRSQMLFRGRRASQ
**Q.** For B1, which ICAM-1 level ([6]; TNF-α 5 ng/ml, IFN-γ 100 ng/ml, IL-1 1 ng/ml) is on record?
**A.** increased

**Q.** What about the HLA-DR level [6] of the same molecule?
**A.** increased

**Q.** What about the MIG level [6] of the same molecule?
**A.** increased
